Results taken from PubChem BioAssay (NCI).
Values joined by “and” are separate entries in the source; they are usually repeats but may differ in a detail not shown here. Equal entries are not always repeated.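 Test compounds were applied to cells in 96-well plates for 48 hours at 5 doses. The concentration for 50% growth inhibition is given as GI50. At the TGI there is no net growth.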

Experiments:
Assay in all cases: growth of human tumour cells (NCI), 48 h
MOLT-4 leukemia = test system: MOLT-4 leukemia
HOP-92 NSCLC = test system: HOP-92 NSCLC
SN12C renal = test system: SN12C renal
KM12 colon = test system: KM12 colon
SF-268 CNS = test system: SF-268 CNS
ACHN renal = test system: ACHN renal
SR leukemia = test system: SR leukemia
BT-549 breast = test system: BT-549 breast
SF-295 CNS = test system: SF-295 CNS
NCI-H460 lung = test system: NCI-H460 lung

SMILES	TGI (MOLT-4 leukemia) [µM]	TGI (HOP-92 NSCLC)	TGI (SN12C renal) [µM]	TGI (KM12 colon) [µM]	TGI (SF-268 CNS) [µM]	TGI (ACHN renal) [µM]	TGI (SR leukemia) [µM]	TGI (BT-549 breast) [µM]	TGI (SF-295 CNS) [µM]	TGI (NCI-H460 lung) [µM]	GI50 (MOLT-4 leukemia)	GI50 (HOP-92 NSCLC)	GI50 (SN12C renal)	GI50 (KM12 colon)	GI50 (SF-268 CNS)	GI50 (ACHN renal)	GI50 (SR leukemia)	GI50 (BT-549 breast)	GI50 (SF-295 CNS)	GI50 (NCI-H460 lung)
COc1ccc(-c2cc(=O)c3c(O)cc(C)cc3o2)cc1OC	> 100	> 100 µM	> 100	> 100	> 100	> 100	> 100	> 100	> 100	> 100	–	–	–	–	–	–	–	–	–	–
O=C(OCc1ccc2c(Cl)cc(Cl)c(O)c2n1)c1cc2ccccc2[nH]1	2.35	0.722 µM	0.939	3.38	2.97	0.519	1.92	0.845	3.31	3.52	0.407 µM	0.228 µM	0.285 µM	1.69 µM	1.5 µM	0.219 µM	0.324 µM	0.265 µM	1.64 µM	1.66 µM
CCc1nc(Cl)nc(Cl)c1Cl	1.68	5.16 µM	6.69	15.5	3.37	1.5	0.444	14.6	23.1	28.5	–	–	–	–	–	–	–	–	–	–
CCCSC1=NC2C(N(CC)C(=O)N2CC)N1/N=C/C=C/c1ccccc1[N+](=O)[O-] (stereo not drawn)	> 100	8.47 µM	> 100	> 100	> 100	> 100	5.53	8.5	> 100	> 100	3.36 µM	1.27 µM	3.84 µM	3.55 µM	4.69 µM	3.98 µM	1.1 µM	2.6 µM	2.74 µM	3.45 µM
C#Cc1cccc(Nc2nc3ccc([N+](=O)[O-])cc3nc2Nc2cccc(C#C)c2)c1	1.02	0.704 µM	1.29	1.03	1.3	1.16	1.3	1.2	0.416	0.899	0.247 µM	0.191 µM	0.313 µM	0.299 µM	0.313 µM	0.293 µM	0.318 µM	0.294 µM	0.172 µM	0.209 µM
COc1cccc2[nH]c(-c3ccccn3)nc12	–	> 100 µM	> 100	> 100	> 100	> 100	> 100	> 100	> 100	> 100	–	–	–	–	–	–	–	–	–	–
COc1cc2nc3cc([N+](=O)[O-])ccc3c(NCCCNCC(C)(C)O)c2cc1OC	6.67	0.726 µM	1.11	1.6	1.26	6.07	3.06	3.32	2.43	1.04	0.372 µM	0.225 µM	0.232 µM	0.41 µM	0.308 µM	0.576 µM	0.321 µM	1.75 µM	0.501 µM	0.299 µM
COc1ccc(-c2c(-c3cc(OC)c4c(c3)OCO4)noc2N)cc1	17.5	35.8 µM	> 93	0.827	> 91	39.8	> 36.6	38.7	23.8	10.9	0.0723 µM	3.72 µM	0.147 µM	0.0161 µM	0.11 µM	0.108 µM	< 0.0104 µM	0.568 µM	0.0197 µM	0.0339 µM
NC(=O)/C=C/NC(=O)/C=N\O	> 100	> 100 µM	> 100	> 100	> 100	> 100	> 100	> 100	> 100	> 100	–	–	–	–	–	–	–	–	–	–
CC1=C[S+](c2ccccc2)c2cccc3cc4ccccc4c1c23 (stereo not drawn)	9.26	2.43 µM	1.25	1.21	1.76	14.4	2.14	0.717	0.584	2.37	0.572 µM	0.506 µM	0.172 µM	0.109 µM	0.237 µM	0.734 µM	0.297 µM	0.216 µM	0.111 µM	0.349 µM
Cc1nc(N)sc1C(=O)Nc1cc(C(=O)NCCCN(C)C)n(C)c1	> 100	> 100 µM	> 100	> 100	> 100	> 100	> 100	> 100	> 100	> 100	> 100 µM	> 100 µM	> 100 µM	> 100 µM	> 100 µM	> 100 µM	> 100 µM	76.7 µM	> 100 µM	> 100 µM
COc1ccccc1S(=O)(=O)Nc1ccc2c(c1)CN(C)C(=O)N2	> 100	> 51.9 µM and 71.6 µM	> 100	> 100	> 100	> 100	> 100	> 100	> 100	> 100	11 µM and 12.7 µM	2.22 µM and 1.18 µM	11 µM and 7.5 µM	14.6 µM and 7.41 µM	20 µM and 24.7 µM	4.76 µM and 8.29 µM	2.4 µM and 3.49 µM	9.98 µM and 26.3 µM	6.48 µM and 9.42 µM	10.6 µM and 13.4 µM
COc1ccc(-c2csc(-c3cc(Cl)cc(Cl)c3Cl)n2)cc1	> 100	> 100 µM	> 100	> 100	> 100	> 100	32.4	> 100	> 100	> 100	57 µM	27.6 µM	> 100 µM	48.1 µM	58 µM	> 100 µM	7.05 µM	92.2 µM	57.8 µM	46.5 µM
C=C(C)[C@@H]1CC[C@]2(COC3CCCCO3)CC[C@]3(C)[C@H](CC[C@@H]4[C@@]5(C)C=C(C=O)C(=O)C(C)(C)[C@@H]5CC[C@]43C)[C@@H]12 (stereo partly drawn)	29.9	2.89 µM	5.57	3.5	3.05	2.52	6.78	2.78	2.96	4.22	1.03 µM	1.49 µM	2.06 µM	1.37 µM	1.34 µM	1.26 µM	1.52 µM	1.42 µM	1.5 µM	2.02 µM
Cc1cc(C)nc(SC2=C(Nc3cccc(Cl)c3C)C(=O)N(Cc3ccccc3)C2=O)n1	> 160	> 160 µM	–	> 160	> 160	> 160	> 160	> 160	> 160	> 160	> 160 µM	> 160 µM	–	> 160 µM	> 160 µM	> 160 µM	> 160 µM	> 160 µM	> 160 µM	> 160 µM
COc1cnc2c(c1)C(=O)c1c-2n(CCCN2CCCC2)c(=O)c2cc(F)ccc12	0.414	7.8 µM	10	4.73	13.9	0.461	1.26	6.43	0.755	0.3	0.0591 µM	0.531 µM	0.214 µM	0.284 µM	0.411 µM	0.155 µM	0.144 µM	0.85 µM	0.202 µM	0.0603 µM
CC/C(C)=C1\OC(=O)C(C)C(O)C(Cc2cccnc2)NC(=O)C(NC(=O)c2ncccc2O)C(C)OC1=O (stereo not drawn)	> 100	–	> 100	> 100	> 100	> 100	> 100	> 100	> 100	> 100	–	–	–	–	–	–	–	–	–	–
CC(=O)OCC1O[C@@H]([S-])C(OC(C)=O)[C@H](OC(C)=O)[C@@H]1OC(C)=O.[Au+].c1ccc(CN2[CH-]N(Cc3ccccc3)C(c3ccccc3)=C2c2ccccc2)cc1	9.47	3.38 µM	5.58	4.27	–	3.51	7.8	3.54	6.31	–	3.06 µM	1.74 µM	2.22 µM	2.09 µM	–	1.82 µM	0.663 µM	1.86 µM	2.34 µM	–
CNC1C(O)C(OC2C(N)CC(N)C(OC3OC(C(C)O)C(O)C(O)C3N)C2O)OCC1(C)O (stereo not drawn)	> 100	–	> 100	> 100	> 100	> 100	> 100	> 100	> 100	> 100	–	–	–	–	–	–	–	–	–	–
COc1ccc2c(c1)CCC1=CC3(CCC12C)SCCS3 (stereo not drawn)	> 10	> 10 µM	> 10	> 10	> 10	> 10	> 10	> 10	> 10	–	–	–	–	–	–	–	–	–	–	–
O=C1C(Cl)=C(Nc2cccc(O)c2)C(=O)N1c1ccccc1Cl	38.1	–	46.4	> 100	60.6	> 100	40.2	75.4	> 100	> 100	15.8 µM	–	17.3 µM	59.5 µM	13.6 µM	> 100 µM	7 µM	21.8 µM	40 µM	41.2 µM
